The NIST ThermoML archive (doi:10.1016/j.fluid.2014.03.004)
± gives the expanded uncertainty stated by the source.

Conditions: 101.33 kPa, Liquid; for mass density: Vibrating tube method; for electrical conductivity: Alternating current cell with electrodes; for viscosity: Falling or rolling sphere viscometry

With `CCCCC[n+]1ccn(CCCC)c1.O=S(=O)([N-]S(=O)(=O)C(F)(F)F)C(F)(F)F` the mass density (293.15 K) was 1322.07 ± 3.4 kg/m3, the electrical conductivity (298.15 K) was 0.164 ± 0.007 S/m and the viscosity (298.15 K) was 75.9 ± 2.7 mPa·s. The mass density (298.15 K) was 1317.6 ± 3.4 kg/m3, the viscosity (303.15 K) was 61.5 ± 2.1 mPa·s and the mass density (303.15 K) was 1313.16 ± 3.4 kg/m3. The electrical conductivity (303.16 K) was 0.205 ± 0.008 S/m, the electrical conductivity (313.15 K) was 0.303 ± 0.012 S/m and the viscosity (313.15 K) was 40.3 ± 1.4 mPa·s. It also gave a mass density (313.15 K) of 1304.29 ± 3.3 kg/m3, an electrical conductivity (323.15 K) of 0.427 ± 0.017 S/m and a viscosity (323.15 K) of 28 ± 1 mPa·s. The mass density (323.15 K) was 1295.48 ± 3.3 kg/m3, the electrical conductivity (333.15 K) was 0.58 ± 0.023 S/m and the viscosity (333.15 K) was 20.2 ± 0.7 mPa·s. For the same molecule, the mass density (333.15 K) was 1286.72 ± 3.2 kg/m3, the electrical conductivity (343.15 K) was 0.757 ± 0.03 S/m and the mass density (343.15 K) was 1278.02 ± 3.2 kg/m3. The viscosity (353.15 K) was 11.6 ± 0.4 mPa·s, the mass density (353.15 K) was 1269.36 ± 3.1 kg/m3 and the electrical conductivity (353.16 K) was 0.96 ± 0.038 S/m.

Molecule `CCCC[n+]1ccn(C2CCCC2)c1.O=S(=O)([N-]S(=O)(=O)C(F)(F)F)C(F)(F)F` has a mass density (293.15 K) of 1383.1 ± 3.7 kg/m3, an electrical conductivity (298.15 K) of 0.197 ± 0.008 S/m and a viscosity (298.15 K) of 85.1 ± 3.2 mPa·s. The mass density (298.15 K) was 1378.52 ± 3.7 kg/m3, the viscosity (303.15 K) was 67.9 ± 2.4 mPa·s and the mass density (303.15 K) was 1373.96 ± 3.7 kg/m3. The electrical conductivity (303.16 K) was 0.246 ± 0.01 S/m, the electrical conductivity (313.15 K) was 0.361 ± 0.014 S/m and the viscosity (313.15 K) was 44.3 ± 1.5 mPa·s. It also gave a mass density (313.15 K) of 1364.86 ± 3.6 kg/m3, an electrical conductivity (323.15 K) of 0.504 ± 0.02 S/m and a viscosity (323.15 K) of 30.8 ± 1.1 mPa·s. It also gave a mass density (323.15 K) of 1355.84 ± 3.6 kg/m3, an electrical conductivity (333.15 K) of 0.668 ± 0.027 S/m and a viscosity (333.15 K) of 22.3 ± 0.8 mPa·s. For the same molecule, the mass density (333.15 K) was 1346.87 ± 3.5 kg/m3, the electrical conductivity (343.15 K) was 0.878 ± 0.035 S/m and the viscosity (343.15 K) was 16.7 ± 0.6 mPa·s. For the same molecule, the mass density (343.15 K) was 1337.96 ± 3.5 kg/m3, the electrical conductivity (353.15 K) was 1.11 ± 0.045 S/m and the viscosity (353.15 K) was 13 ± 0.4 mPa·s. It also gave a mass density (353.15 K) of 1329.11 ± 3.4 kg/m3.

In the case of `CCCCn1cc[n+](CCC(C)C)c1.O=S(=O)([N-]S(=O)(=O)C(F)(F)F)C(F)(F)F`, the mass density (293.15 K) is reported as 1322.37 ± 3.4 kg/m3, the electrical conductivity (298.15 K) is reported as 0.145 ± 0.006 S/m and the viscosity (298.15 K) is reported as 93 ± 3.6 mPa·s. It also gave a mass density (298.15 K) of 1318.1 ± 3.4 kg/m3, a viscosity (303.15 K) of 73.2 ± 2.6 mPa·s and a mass density (303.15 K) of 1313.65 ± 3.4 kg/m3. It also gave an electrical conductivity (303.16 K) of 0.182 ± 0.007 S/m, an electrical conductivity (313.15 K) of 0.273 ± 0.011 S/m and a viscosity (313.15 K) of 46.5 ± 1.6 mPa·s. For the same molecule, the mass density (313.15 K) was 1304.82 ± 3.3 kg/m3, the electrical conductivity (323.15 K) was 0.389 ± 0.016 S/m and the viscosity (323.15 K) was 31.5 ± 1.1 mPa·s. The mass density (323.15 K) was 1296.03 ± 3.3 kg/m3, the electrical conductivity (333.15 K) was 0.529 ± 0.021 S/m and the viscosity (333.15 K) was 22.4 ± 0.8 mPa·s. For the same molecule, the mass density (333.15 K) was 1287.3 ± 3.2 kg/m3, the electrical conductivity (343.15 K) was 0.694 ± 0.028 S/m and the mass density (343.15 K) was 1278.62 ± 3.2 kg/m3. It also gave a viscosity (353.15 K) of 12.6 ± 0.4 mPa·s, a mass density (353.15 K) of 1269.99 ± 3.1 kg/m3 and an electrical conductivity (353.16 K) of 0.883 ± 0.035 S/m.
